Laboratory results: patent US7507806B2, “Nucleic acid sequences of human Rif1” (The Rockefeller University, priority 2004, dated 2009)

Columns and labels:
Assay type in all cases: cell-based, human
Rif1 foci [1] = assay: UV-induced Rif1 foci by indirect immunofluorescence; conditions: aphidicolin after the UV irradiation
Description: (§1) For IR treatment, cells were exposed to gamma(λ)-irradiation using a Cs^137 source at a rate of 7.7 Gray/min in 6 cm dishes. For UV radiation, cells were washed with PBS and exposed to 25 J/m^2 UV (265 nm) radiation in a Stratalinker (Stratagene) without a lid. After UV radiation, cells were incubated in media until harvest. For immunoblotting as described in FIG. 2B, cells were harvested 1 hr post-UV. MMS and etoposide (0.01% w/v and 50 μg/ml, respectively) were added to the media and cells were incubated for 1 hr before harvesting.
(§2) To stain cells for immunofluorescence, tissue culture cells plated on dishes with coverslips were washed twice with PBS, fixed with 2% paraformaldehyde in PBS (stored at −20° C.) for 10 minutes at room temperature (RT), washed twice with PBS and permeabilized with 0.5% NP-40 in PBS for 10 minutes at RT and washed three times with PBS. Cells were processed immediately or stored at 4° C. wrapped in PBS with sodium azide. […]

53BP1 foci = 53BP1 foci by indirect immunofluorescence after IR or UV; conditions: aphidicolin after the UV irradiation
Description: as §1, §2

Rif1 foci [2] = assay: Rif1 foci after drug treatment, immunofluorescence; conditions: MMS 0.01% w/v, etoposide 50 μg/ml, 1 hr; hydroxyurea prolonged incubation
Description: as §1
To stain cells for immunofluorescence, tissue culture cells plated on dishes with coverslips were washed twice with PBS, fixed with 2% paraformaldehyde in PBS (stored at −20° C.) for 10 minutes at room temperature (RT), washed twice with PBS and permeabilized with 0.5% NP-40 in PBS for 10 minutes at RT and washed three times with PBS. Cells were processed immediately or stored at 4° C. wrapped in PBS with sodium azide. Coverslips were placed on parafilm in a humidified tray and blocked with PBG (0.2% (w/v) cold water fish gelatin (Sigma), 0.5% (w/v) BSA (Sigma) in PBS (stored at −20° C.) for 30 minutes at RT. Cells were then incubated with primary antibody diluted in PBG for 3 hours at RT, washed three times with PBG for 5 minutes at RT, incubated with secondary antibody diluted 1:100 in PBG for 40 minutes at RT, washed three times with PBG for 5 minutes at RT (with the last wash containing DAPI ([…]). Coverslips were then washed twice with PBS and mounted on glass slides in mounting media and sealed with nail polish.

C[C@@]1(CO)[C@H](O)CC[C@@]2(C)[C@H]1CC[C@H]1C[C@@H]3C[C@@]12CC[C@]3(O)CO [Aphidicolin]
Rif1 foci after UV (Rif1 foci [1]): fail to form Rif1 foci after UV | 53BP1 foci after UV (53BP1 foci): still detectable

COS(C)(=O)=O [MMS]
Rif1 foci formation after treatment (Rif1 foci [2]): forms foci

NC(=O)NO [hydroxyurea]
Rif1 foci formation after treatment (Rif1 foci [2]): forms foci

COc1cc([C@@H]2c3cc4c(cc3[C@@H](O[C@@H]3O[C@@H]5CO[C@@H](C)O[C@H]5[C@H](O)[C@H]3O)[C@H]3COC(=O)[C@H]23)OCO4)cc(OC)c1O [etoposide]
Rif1 foci formation after treatment (Rif1 foci [2]): forms foci
